{"source": "patent US20060264455A1", "about": "(priority 2005, published 2006)", "key": {"[1]": {"system": "6 Hz limbic seizures (corneal stimulation)", "assay": "animal or person", "details": "Mus musculus, ip", "text": "These three tests are highly predictive of efficacy against human generalized tonic-clonic (MES), generalized myoclonic (sc PTZ), and refractory limbic (6 Hz) seizures, respectively.\nMale, 18-25 g CFI mice and 100-125 g Sprague-Dawley rats (Charles River Laboratories, Wilmington, Mass.) were used as the experimental animals. Animals were pretreated intraperitoneally (i.p.) with increasing doses of HupA and tested at various times after administration for protection against tonic extension (MES test), minimal clonic (s.c. PTZ test), limbic (6 Hz), or secondarily generalized (kindled rat) seizures. Seizure testing was carried out as follows. For the MES and 6 Hz tests, a drop of anesthetic/electrolyte solution (0.5% tetracaine hydrochloride in 0.9% saline) was applied to the eyes of each animal prior to placement of the corneal electrodes."}, "[2]": {"system": "subcutaneous Metrazol (pentylenetetrazol) seizures", "assay": "Subcutaneous Metrazol (SCMET / scPTZ) model, rats", "text": "The Subcutaneous Metrazole (SCMET) model is also an art-recognized test for therapeutic agents for epilepsy, and in particular, is useful for investigating petite mal seizures."}}, "data": [{"molecule": "C/C=C1\\[C@H]2C=C(C)C[C@]1(N)c1ccc(=O)[nH]c1C2", "note": "[Huperzine A]", "values": [{"measurement": "ED50", "setting": "[1]; 1 h, 22 mA", "value": 0.279, "unit": "mg/kg"}, {"measurement": "ED50", "setting": "[1]; 1 h, 32 mA", "value": 0.339, "unit": "mg/kg"}, {"measurement": "ED50", "setting": "[1]; 22 mA", "value": 0.28, "unit": "mg/kg"}, {"measurement": "ED50", "setting": "[1]; 32 mA", "value": 0.34, "unit": "mg/kg"}, {"measurement": "ED50", "setting": "[1]; 44 mA", "value": 0.78, "unit": "mg/kg"}, {"measurement": "Time of peak anticonvulsant activity", "setting": "[2]; after p.o. administration of 1 mg/kg, test not given", "value": "one-hour"}, {"measurement": "Maximum protection", "setting": "[2]; p.o., doses tested 1, 2 and 4 mg/kg, at a non-toxic dose of 1 mg/kg, test not given", "value": 62.5, "unit": "%"}, {"measurement": "N/F, SCMET time course", "setting": "[2]; rats, oral, 1 mg/kg, 0.25 h", "value": "0/4"}, {"measurement": "N/F, SCMET time course", "setting": "[2]; rats, oral, 1 mg/kg, 0.5 h", "value": "2/4"}, {"measurement": "N/F, SCMET time course", "setting": "[2]; rats, oral, 1 mg/kg, 1.0 h", "value": "2/4"}, {"measurement": "N/F, SCMET time course", "setting": "[2]; rats, oral, 1 mg/kg, 2.0 h", "value": "1/4"}, {"measurement": "N/F, SCMET time course", "setting": "[2]; rats, oral, 1 mg/kg, 4.0 h", "value": "1/4"}, {"measurement": "N/F, SCMET time course", "setting": "[2]; rats, oral, 1 mg/kg, 6.0 h", "value": "0/4"}, {"measurement": "Time of peak activity post administration", "setting": "[2]; rats, oral, 1 mg/kg, MES and SCMET models", "value": "between 30 minutes and two hours"}, {"measurement": "Maximum Protection Observed", "setting": "[2]; scPTZ, Rat, 2 mg/kg, p.o., time of test ½ h", "value": 62.5, "unit": "%"}]}]}
